Columns and labels:
[1] = Iron binding (quenching of fluorescence) by fluorescein-transferrin preparations with and without oxalate and gallium; conditions: 0.6 μM indicator, 10 mM oxalate and gallium, FIGS. 8A-B
Procedure: FIGS. 8A–B graphically depict the ability of two particular preparations of iron-free-transferrin, essentially Fl-TF (FIG. 8A) and Fl-aTF (FIG. 8B), to detect free iron in the presence and absence of oxalate and Gallium [Ga(III)]. 0.6 μM of each of the indicator molecules were tested under three experimental conditions: with no addition (squares), with 10 mM Na-oxalate (circles) and with 10 mM Na-oxalate and 0.1 mM GaCl3 (triangles), Quenching of fluorescence as a function of iron concentration was measured and presented as % Original Fluorescence.
Preparation of fluorescein-conjugated apo-Transferrin (Fl-aTF) and iron depleted Transferrin (FL-TF)—100 μM 5-(4,6-dichlorotriazinyl) aminofluorescein (DCTAF, Molecular Probes, Eugene, Oreg.) from a freshly prepared 10 mM solution in dimethylsulfoxide was added to a solution containing 8 mg/ml apo-Transferrin (Kamada, Kibbutz Kama, Israel) (100 μM, based on a, MW of 80 kD) in 100 mM NaHCO3, pH 8.4. Following a 30 minute incubation at 37° C. in the dark, 5 mM L-lysine was added from a solution containing 0.5 M L-lysine, pH 8, in order to terminate the coupling reaction. The product Fl-aTF was extensively dialyzed against HBS, divided into aliquots and stored frozen at −20° C. The final preparation yielded a single fluorescent band of approximately 80 kD in polyacrylamide electrophoresis determinations. The fluoroscein concentration in Fl-aTF was determined to be 84 μM by measuring absorbance at 496 nm, using DCTAF as standard solution, giving a ratio of aTf: fluoroscein of 1:0.84.
FL-TF was prepared in an identical manner as FL-aTF, with the difference that iron-saturated human transferrin (from Kamada, Kibbutz Kama, Israel) was used instead of iron-free transferrin for reaction with DCTAF. The FL-TF was rendered iron-free by exhaustive dialysis against 37.5 mM Na-Citrate, pH 5.0, and then the citrate was removed from the preparation by exhaustive dialysis against HBS. […]

[2] = DCI in serum/plasma of Thalassemia patients undergoing oral L1-chelation therapy; assay type: in vivo, human; conditions: Thalassemia patients (Thailand, Israel), therapeutic oral doses of L1, minutes to hours after administration; FIGS. 6A-B
Source text: FIG. 5 is a schematic illustration of another embodiment of the method of the present invention directed at detecting iron mobilized from tissues into plasma by chelators such as L1 (also called deferriprone). In the example depicted, a serum sample was taken from a patient following L1 oral administration. The iron mobilized in vivo into the plasma by L1 is transferred to Fl-DFO in vitro, whereupon Fl-DFO's fluorescence is quenched commensurately with the amount of iron transferred. The basic assay is as depicted in FIG. 2. FIGS. 6A–B are graphs depicting the DCI levels in plasma of thalassemic patients (3 from Israel and 3 from Thailand, FIGS. 6B and A, respectively) treated with therapeutic doses of L1 (per os). Sampled were retrieved minutes to hours following L1 administration. […] When assessed under actual clinical conditions, with serum samples from Thalassemia patients (each patient is represented by a line in the graph) undergoing L1-chelation therapy in Thailand (FIG. 6A) and Israel (FIG. 6B), the methods of the present invention accurately reflected the L1-bound iron in the patient's plasma. DCI was detected in the samples assayed as described hereinabove (Example 2), and DCI values determined from the standard calibration curve (FIG. 4). […]

Molecule: 5-4,6-dichlorotriazinyl aminofluorescein (DCTF)-apo-transferrin [Fl-aTF]
- quenching of fluorescence by iron in the presence of gallium ([1]; listed as FL-aTF): strongly quenched by low concentrations of iron in the presence of gallium
- quenching of fluorescence by iron in the presence of gallium ([1]; listed as Fl-aTf): not affected by Gallium

Molecule: Cc1c(O)c(=O)ccn1C [L1]
- DCI in patient plasma after L1 administration [2]: increases in DCI

Molecule: Fl-TF: fluorescein attached to iron-saturated human transferrin, then rendered iron-free; similar to conventional fluoresceinated Transferrin
- quenching of fluorescence by iron in the presence of gallium [1]: inhibition of Fl-TF fluorescence quenching by gallium was clearly observed

— US7090995B2, “Molecules and methods using same for measuring non-transferrin bound iron” (Yissum Research Development Company of the Hebrew …, priority 2000, dated 2006)
